Drawing on US6583154B1, “Compounds and methods which modulate feeding behavior and related diseases” (Amgen Inc., priority 1998, dated 2003), this text covers melting point for 44 compounds.

One may read the melting point as the temperature, or range, at which the solid turns liquid.

Structures can show the parent of a compound that is named as a salt.

Take `Cc1nc(N2CCCCC2)c2[nH]c(-c3ccccc3F)cc2n1.Cl` (hydrate or solvate) [Example 102, 6-(2-Fluorophenyl)-2-methyl-4-piperidylpyrrolo[3,2-d]pyrimidine Hydrochloride Monohydrate]: the melting point is 287 to 289 °C.

`Cc1nc(N2CCCCC2)c2[nH]c(-c3ccc4c(c3)CCC4)cc2n1.Cl` (hydrate or solvate) [Example 130, 6-Indan-5-yl-2-methyl-4-piperidylpyrrolo[3,2-d]pyrimidine Hydrochloride Monohydrate] displayed a melting point of 164 to 167 °C.

`Cc1nc(N2CCCCC2)c2[nH]c(-c3cnccn3)cc2n1.Cl` (hydrate or solvate): the melting point was 280 to 283.5 °C.

Consider `Cc1nc(N2CCCCC2)c2[nH]c(CCc3ccccc3)cc2n1.Cl` (hydrate or solvate) [Example 168, 2-Methyl-6-(2-phenylethyl)-4-piperidylpyrrolo[3,2-d]pyrimidine Hydrochloride Hydrate], for which the melting point was in the range of 236 to 238 °C.

As for `Nc1nc(N2CCCCC2)c2[nH]c(-c3ccccc3)cc2n1` (as salt: hydrochloride) (hydrate or solvate) [Example 66e, 6-Phenyl-4-piperidylpyrrolo[3,2-d]pyrimidine-2-yl Amine Hydrochloride Hydrate], the melting point was > 300 °C (dec.).

The compound `Cc1nc(N2CCCCC2)c2[nH]c(C)c(-c3ccc(F)cc3)c2n1.Cl` showed a melting point of over 280 °C.

For the compound `Cc1nc(N2CCCC2)c2[nH]c(-c3ccccc3)cc2n1` (as salt: hydrochloride) (hydrate or solvate) [Example 193, 2-Methyl-6-phenyl-4-pyrrolidinylpyrrolo[3,2-d]pyrimidine Hydrochloride Monohydrate], the melting point was over 296 °C.

On to `COc1cccc(-c2cc3nc(C)nc(N4CCCCC4)c3[nH]2)c1.Cl` (hydrate or solvate), for which the melting point is 241 to 243 °C.

The compound `Cc1nc(N2CCCCC2)c2[nH]c(-c3ccc(O)c(F)c3)cc2n1.Cl` (hydrate or solvate) had a melting point of over 280 °C.

Consider `Cc1nc(N2CCCCC2)c2[nH]c(CS(=O)(=O)c3ccc(Cl)cc3)cc2n1.Cl` (hydrate or solvate), for which the melting point was in the range of 199 to 201 °C.

Take `CSc1nc(N2CCCCC2)c2[nH]c(-c3ccccc3)cc2n1.Cl` (hydrate or solvate): the melting point is 281 to 283 °C (dec.).

`Cc1nc(N2CCN(S(=O)(=O)c3ccccc3)CC2)c2[nH]c(-c3ccccc3)cc2n1` (as salt: hydrochloride) (hydrate or solvate) [Example 227, 1-(2-Methyl-6-phenylpyrrolo[2,3-e]pyrimidin-4-yl(phenylsulfonyl)piperazine Hydrochloride Monohydrate] registered a melting point of 242 to 243 °C.

Compound `Cc1nc(N2CC=CC2)c2oc(-c3ccccc3)cc2n1` (as salt: hydrochloride) (hydrate or solvate) [Example 216c, 2-Methyl-6-phenyl-4-(3-pyrrolinyl)furano[3,2-d]pyrimidine Hydrochloride Hydrate] returned a melting point of 279 to 280 °C.

The compound `Cc1nc(N2CCCCC2)c2[nH]c(C)c(Oc3ccccc3)c2n1.Cl` (hydrate or solvate) had a melting point of over 280 °C.

For the compound `Cc1nc(N2CCCCC2)c2[nH]c(-c3cnn(-c4ccccc4)c3C)cc2n1.Cl` (hydrate or solvate), the melting point was over 280 °C.

Turning to `Cl.c1cnc(-c2cc3ncnc(N4CCCCC4)c3[nH]2)cn1` (hydrate or solvate), the melting point is over 280 °C.

The compound `Cl.c1coc(-c2cc3ncnc(N4CCCCC4)c3[nH]2)c1` displayed a melting point of over 280 °C.

As to `Cl.FC(F)(F)c1nc(N2CCCCC2)c2[nH]c(-c3ccccc3)cc2n1` (hydrate or solvate), the melting point was 235.1 to 237.5 °C (dec.).

Consider `CCc1nc(N2CCCCC2)c2[nH]c(-c3ccccc3)cc2n1.Cl` (hydrate or solvate) [Example 68c, 2-Ethyl-6-phenyl-4-piperidylpyrrolo[3,2-d]pyrimidine Hydrochloride Monohydrate], for which the melting point was 286 to 288 °C (dec.).

For `Cc1nc(N2CCCCC2C)c2[nH]c(-c3ccccc3)cc2n1` (centres unmarked) (as salt: hydrochloride) (hydrate or solvate) [Example 63, 2-Methyl-6-phenyl-4-(2-methylpiperidinyl)pyrrolo(3,2-d)pyrimidine Hydrochloride Monohydrate], the melting point is 268 to 269 °C.

Consider `c1ccc(-c2nc(N3CCCCC3)c3[nH]c(-c4ccccc4)cc3n2)cc1` [Example 45d, 2,6-Diphenyl-4-piperidylpyrrolo[3,2-d]pyrimidine], for which the melting point was in the range of 259 to 261.5 °C.

On to `Cc1nc(N2CCCCC2)c2[nH]c(-c3ccc(-c4ccc(F)c(Cl)c4)o3)cc2n1.Cl` (hydrate or solvate), for which the melting point was over 280 °C.

As for `COc1ccc(-c2cc3nc(C)nc(N4CCCCC4)c3[nH]2)cc1OC.Cl` (hydrate or solvate) [Example 126, 1,2-Dimethoxy-4-(2-methyl-4-piperidylpyrrolo[4,5-d]pyrimidin-6-yl)benzene Hydrochloride Hydrate], the melting point was in the range of 268 to 270 °C.

In the case of `COc1ccccc1-c1cc2nc(C)nc(N3CCCCC3)c2[nH]1.Cl` (hydrate or solvate), the melting point is 261 to 263 °C.

Consider `CCc1nc(N2CCc3ccccc3C2)c2[nH]c(-c3ccccc3)cc2n1` (as salt: hydrochloride) (hydrate or solvate) [Example 202, 2-Ethyl-6-phenyl-4-(2-1,2,3,4-tetrahydroisoquinolyl)pyrrolo[3,2-d]pyrimidine Hydrochloride Monohydrate], for which the melting point was 170 to 171.5 °C.

Take `COc1ccc(-c2[nH]c3c(N4CCCCC4)nc(C)nc3c2C)cc1.Cl`: the melting point was over 280 °C.

For the compound `Cc1nc(N2CCCCC2)c2c(cc(-c3ccccc3)n2C)n1` [Example 36, 2,5-Dimethyl-6-phenyl-4-piperidylpyrrolo[3,2-d]pyrimidine], the melting point was 131 to 132 °C.

As to `Cc1nc(N2CCCCC2)c2[nH]c(-c3ccc(C(F)(F)F)cc3)cc2n1.Cl` (hydrate or solvate) [Example 111, 2-Methyl-4-piperidyl-6-[4-(trifluoromethyl)phenyl]pyrrolo[3,2-d]pyrimidine Hydrochloride Hydrate], the melting point is 278 to 280 °C.

For `Cc1nc(N2CCN(c3ccccc3)CC2)c2[nH]c(-c3ccccc3)cc2n1.Cl` (hydrate or solvate), the melting point is 232 to 234.5 °C.

Compound `CN(C)c1nc(N2CCCCC2)c2[nH]c(-c3ccccc3)cc2n1` (as salt: hydrochloride) (hydrate or solvate) [Example 203, Hydrochloride Hydrate] came in with a melting point of over 300 °C.

Compound `Cc1nc(-n2cccn2)c2[nH]c(-c3ccccc3)cc2n1` (as salt: hydrochloride) (hydrate or solvate) [Example 218, 2-Methyl-6-phenyl-4-pyrazolypyrrolo[3,2-d]pyrimidine Hydrochloride Hydrate] showed a melting point of 253 to 254 °C.

Take `Cc1nc(NCc2ccccc2)c2[nH]c(-c3ccccc3)cc2n1` [Example 29, (2-Methyl-6-phenylpyrrolo[2,3-e]pyrimidin-4-yl)benyzlamine]: the melting point lay within 275 to 276.5 °C.

With `Cc1nc(N2CCCCCC2)c2[nH]c(-c3ccccc3)cc2n1` [Example 8, 4-Homopiperidyl-2-methyl-6-phenylpyrrolo[3,2-d]pyrimidine], the melting point is 209 to 210 °C.

Consider `CNc1nc(N2CCCCC2)c2[nH]c(-c3ccccc3)cc2n1` (as salt: hydrochloride) (hydrate or solvate), for which the melting point was in the range of 195 to 200 °C.

The compound `Cc1nc2c3c(cc(-c4ccccc4)n3CC3CCCCN23)n1.Cl` (centres unmarked) (hydrate or solvate) returned a melting point of over 280 °C.

In the case of `Cc1nc(N2CCCCC2)c2[nH]c(-c3cccc(C(F)(F)F)c3)cc2n1.Cl` (hydrate or solvate) [Example 107, 2-Methyl-4-piperidyl-6-[3-(trifluoromethyl)phenyl]pyrrolo[3,2-d]pyrimidine Hydrochloride Monohydrate], the melting point is 241 to 243 °C.

On to `Cc1nc(N2CCCCC2CCO)c2[nH]c(-c3ccccc3)cc2n1` (centres unmarked) (as salt: hydrochloride) [Example 62, 2-Methyl-6-phenyl-4-(2-piperidineethanolyl)pyrrolo(3,2-d)pyrimidine Hydrochloride], for which the melting point was 273 to 273.5 °C.

With `CCCc1nc(N2CCCCC2)c2[nH]c(-c3ccccc3)cc2n1` (as salt: hydrochloride) (hydrate or solvate) [Example 196c, 6-Phenyl-4-piperidyl-2-propylpyrrolo[3,2-d]pyrimidine Hydrochloride Monohydrate], the melting point lay within 258 to 262.5 °C.

`Cc1nc(N2CCCCC2)c2[nH]c(-c3ccc(Cl)c(Cl)c3)c(C)c2n1.Cl` (hydrate or solvate) showed a melting point of over 280 °C.

Take `Cc1nc(N2CC=CCC2)c2[nH]c(-c3ccccc3)cc2n1` (as salt: hydrochloride) [Example 65, 2-Methyl-6-phenyl-4-(1,2,3,6-tetrahydropyridinyl)pyrrolo[3,2-d]pyrimidine Hydrochloride]: the melting point lay within 278 to 279 °C.

In turn, `Cc1c(-c2ccccc2)n(C)c2c(N3CCCCC3)ncnc12` [Example 155, 5,7-Dimethyl-6-phenyl-4-piperidylpyrrolo[3,2-d]pyrimidine] gave a melting point of 123 to 125 °C.

Compound `Cc1nc(N2CCCCC2)c2[nH]c(-c3ccccn3)cc2n1.Cl` (hydrate or solvate) [Example 77, 2-Methyl-4-piperidyl-6-(2-pyridyl)pyrrolo[3,2-d]pyrimidine Hydrochloride Hydrate] had a melting point of over 280 °C.

On to `Cc1nc(N2CCCCC2)c2[nH]c(-c3ccn(S(=O)(=O)c4ccccc4)c3)cc2n1.Cl` (hydrate or solvate) [Example 101, 3-(2-Methyl-4-piperidylpyrrolo[4,5-d]pyrimidin-6-yl)-1-(phenylsulfonyl)pyrrole Hydrochloride Hydrate], for which the melting point was in the range of 183 to 185.5 °C.

As to `COc1ccc(-c2c(C)[nH]c3c(N4CCCCC4)nc(C)nc23)cc1.Cl` (hydrate or solvate), the melting point was 170 °C (dec.).
